Measurements taken from BindingDB's records for doi:10.1016/j.bmc.2014.11.013 (University Medical Center Groningen, 2014).

Assay: Inhibition of human recombinant ADAM17 using Mca-PLAQAV-Dpa-RSSSR-NH2

Row | IC50 | SMILES
1 | 25 nM | CC(C)C[C@H](CC(=O)NO)C(=O)N[C@@H](Cc1ccccc1)C(=O)N[C@@H](CCCCNC(=O)c1ccc(F)cc1)C(N)=O
2 | 5.7 nM | CC(C)C[C@H](CC(=O)NO)C(=O)N[C@@H](Cc1ccccc1)C(=O)N[C@@H](CCCCN)C(N)=O
